The source of these data is US6410752B1, “Tocopherol derivatives and method for preparation thereof” (Pacific Corporation, priority 2000, dated 2002).

Like-named read-outs stand apart in the source and are kept apart here.

A short description of data set [1]: Measurement of antioxidant activity using Lard oil. The settings on record: 60° C. dark room, when weight no longer changed, NMR spectroscopy. As to the method: 2.0 g of Lard oil was poured on petri-dish, and here 40 mmol of each of tocopherol, preparation example 1 or tocopherol acetate was added. Then, the mixture solution was maintained in a dark room of 60° C. The oxidation ratio of Lard oil was determined by daily measurement of the change in weight. The less is the changeability in weight of Lard oil, the stronger is the antioxidant ability, because the increase in weight of Lard oil is related to the oxidation of Lard oil.
In the meantime, when the change in weight of Lard oil was not observed any longer, the oxidation ratio was determined by using NMR spectroscopy.

Data set [2] is described as follows: Measurement of antioxidant activity using linoleic acid. The following applies: 60° C. dark room, when weight no longer changed, NMR spectroscopy. The procedure: 2.0 g of pure linoleic acid was poured on a petri-dish, and here 40 mmol of each of tocopherol, preparation example 1 or tocopherol acetate was added. Then, the mixture solution was maintained in a dark room of 60° C. The oxidation ratio of linoleic oil was measured by daily measurement of the change in weight. The less is the changeability in weight of linoleic acid, the stronger is the antioxidant ability, because the increase in weight of linoleic acid is related to the oxidation of linoleic oil.
In the meantime, when the change in weight of linoleic acid was not observed any longer, the oxidation ratio was determined by using NMR spectroscopy.

The test system of data set [3] is Fibroblast cells of infant. The following applies: 24 hours, none-treated sample = 100. The procedure: The effect on promoting biosynthesis of collagen was examined in vitro for assaying the effect of the present invention on skin, comparing to 3-amino propane phosphate.
Fibroblast cells of infant were inoculated on 24-wells(10^5 cells/well). They were washed with PBS once. And then, preparation example 1 and 3-aminopropane phosphate as a control were treated by the concentration shown Table 3, and were incubated at CO2 incubator for 24 hours. Each supernatant was collected, and the variation of procollagen was measured by using procollangen type (I) ELISA kit. The value of biosynthesis activity was calculated by comparing to 100, the value of none-treated sample.

For data set [4] the following is noted: 60° C., in cetylethyl-hexanoate; for Residual ration(%): HPLC.
Method: Each 3 g of preparation example 1 product and tocopherol was dissolved with 100 ml of cetylethyl-hexanoate. […] Then, residual ratio of each compound was analyzed by using HPLC. Here, phenyl column, eluate solution of 70% aqueous THF solution including 10 mM SDS and 50 mM H3PO4, flow rate of 1 ml/min and detection of 286 nm was used as HPLC analysis condition of preparation example 1. And ODS column, MeOH as eluate solution, flow rate of 1 ml/min and detection of 290 nm was used as HPLC analysis condition of tocopherol for control.
The conditions of data set [5]: 60° C., in cetylethyl-hexanoate, six months, unaided eye.
The test system of data set [6] is mice. The following applies: oral, 1 ml/kg of 10% solution in squalene. As to the method:
(§1) If the tocopherol derivatives should be used as cosmetic ingredient, their safety in the living body is very important. […] The product of Preparation Example 1 was dissolved in squalene to produce 10% of solution sample, and the sample was employed in safety experiments.
Acute oral toxicity test in mice: 1 ml/kg of the sample was administrated to total ten (10) mice (male and female were separately five (5) mice).

Data set [7] concerns mice. The settings on record: percutaneous once, 0.2 ml/kg of 10% solution in squalene, two weeks of observation. As to the method:
as §1
(§2) 1-2. Acute dermal toxicity test in mice and rabbits: 0.2 ml/kg of the sample was administrated percutaneously once to a total of ten (10) mice (five male and five female).

For data set [8], the system named is rabbits. The settings on record: same experiment as in mice (percutaneous, 10% solution in squalene). As to the method: as §1, §2
For data set [9], the system named is rabbits. The settings on record: 0.1 ml of 10% solution in squalene on depilated back site. As to the method: as §1
1-3. Primary skin irritation test: 0.1 ml of test sample was applied to back site (2.5 cm×2.5 cm) of each of 12 rabbits depilated 24 hours before.

For data set [10], the system named is rabbits. The settings on record: 0.1 ml of sample diluted with saline to 2%. As to the method: as §1
1-4. Eye irritation test: The sample was diluted with saline to produce 2% of test sample, and 0.1 ml of the diluted solution was applied to the eye of each of nine (9) rabbits.

For another data set, the system named is Guinea pigs. The settings on record: 10% solution in squalene. The procedure: as §1
1-5. Skin sensitization test: Test was carried out for six (6) (three males and three females) Guinea pigs according to Maggnusson and Kligman's procedure.

In a further data set the test system is healthy women. The settings on record: human patch test, healthy women aged 20~28. As to the method: as §1
1-6. Human patch test: Human patch test was carried out for thirty (30) healthy women aged 20˜28 according to CTFA Guideline(The Cosmetic Toiletry and Fragrance Association, INC., Washington, D.C. 20036, 1991).

The test system of a further data set is subjects. The following applies: repeat insult human patch test. As to the method:
as §1
1-7. Repeat Insult Human Patch Test: Human patch test was carried out for subjects according to CTFA Guideline.

For a further data set, the system named is phosphodiesterase. The settings on record: 37° C., 24 hours, 1% aqueous solution of 1:9 mixture with Tween 20, HPLC.

Method for phosphodiesterase: The phosphodiesterase was used as biological enzyme, and 1% aqueous solution of 1:9 mixture of preparation example 1 and Tween 20 was prepared to use as an assay sample. After the stirring mixture of the above enzyme, assay sample and medium solution at a temperature of 37° C. for 24 hours, analysis for the hydrolysis ratio of tocopherol derivatives was carried out by using HPLC(MeOH:THF=9:1, R.T.=13.695 min, tocopherol).

As for `CC(=O)Oc1c(C)c(C)c2c(c1C)CCC(C)(CCC[C@H](C)CCC[C@H](C)CCCC(C)C)O2` (some centres unmarked) [tocopherol acetate], the “oxidation ratio of Lard oil” value in data set [1] was “about 90%”. In addition, in data set [2], the “oxidation ratio of linoleic acid” value was “about 83%”.

For `NCCCOP(=O)(O)O` [3-aminopropane phosphate, reference compound], in data set [3] (concentration 10^−4 %), the “Biosynthesis activity (%)” value came to 146%.

Regarding tocopherol [reference compound], in data set [1], the “oxidation ratio of Lard oil” value was “about 90%”. For the same molecule, the “oxidation ratio of linoleic acid” value in data set [2] was “about 83%”. Moreover, the “Residual ration(%)” value worked out at 100% in data set [4] (Month 1); 97% in data set [4] (Month 2); 92% in data set [4] (Month 3); 88% in [4] (Month 4); 82% in [4] (Month 5); 76% in [4] (Month 6). Moreover, the “Residual ration(%)” value in data set [4] (Month head blank) was found to be 100%. For the same molecule, the coloration degree entry in [5] is given as “increase in coloration at four (4) months or more”.

For the molecule `Cc1c(C)c2c(c(C)c1OP(=O)(O)OCCCN)CCC(C)(CCCC(C)CCCC(C)CCCC(C)C)O2` (stereo not drawn) [Preparation Example 1, 3-aminopropyl-α-tocopherol phosphate], the death of mice result with mice [6] is recorded as “no death of mice was observed”. For the same molecule, in the data set on mice [6], the “difference in the body weight after administration” value is recorded as “insignificant”. For the same molecule, the “abnormal symptoms or changes in body weight” value in the data set with mice [7] was “no mice administered with the sample exhibited abnormal symptoms or changes in body weight”. The “abnormal symptom and change of body weight” value with rabbits [8] was “No abnormal symptom and change of body weight were observed”. Also, the skin irritation result in the data set with rabbits [9] is on record as “no skin irritation was observed”. Further, in the data set on rabbits [10], the eye irritation entry is “no eye irritation on cornea, iris and conjunctiva was observed”. For the same molecule, the “skin abnormality (sensitization)” value with Guinea pigs is “no skin abnormality such as erythema, edema or freckles was observed”. The primary irritation response result in the data set with healthy women is recorded as “primary irritation response was not observed”. In addition, in the data set on subjects, the “repeat irritation / sensitive irritation” value is reported as “no repeat irritation or no sensitive irritation was observed”. The “Biosynthesis activity (%)” value in data set [3] (concentration 10^−6 %) stood at 141%. The “oxidation ratio of Lard oil” value in data set [1] is “about 5%”. Further, the “oxidation ratio of linoleic acid” value in data set [2] is “about 3%”. Further, in [4], the “stability by quantitative analysis (NMR Spectroscopy), compared with tocopherol” value was “more stable”. The “Residual ration(%)” value in data set [4] (Month 1), in data set [4] (Month 2), in data set [4] (Month 3), in data set [4] (Month 4), in [4] (Month 5) and in [4] (Month 6) was 100% throughout. Further, the “Residual ration(%)” value in data set [4] (Month head blank) is reported as 100%. Besides, the coloration degree entry in data set [5] is on record as “did not change in color”. Besides, the hydrolysis ratio in the data set on phosphodiesterase turned out to be 40%.
